Experimental data reported in ChEMBL document CHEMBL1134114, “Novel sulfonate derivatives: potent antimitotic agents” (Bioorg Med Chem Lett, 2001).

What was measured:
[1] = system: HCT-15; assay: Antiproliferative activity against human colon carcinoma HCT-15 cell line(MDR(+)); Inactive at >10 uM
[2] = system: NCI-H460; assay: Antiproliferative activity against human lung carcinoma NCI-H460 cell line (MDR(-)); Inactive at >10 uM
[3] = system: HCT-15; assay: Antiproliferative activity against human colon carcinoma HCT-15 cell line(MDR(+))
[4] = system: NCI-H460; assay: Antiproliferative activity against human lung carcinoma NCI-H460 cell line (MDR(-))
[5] = target: Tubulin alpha chain (Sus scrofa, UniProt P02550); assay: Concentration inhibiting tubulin polymerization; format: functional
Chain of Tubulin alpha chain (P02550 whole entry, looked up): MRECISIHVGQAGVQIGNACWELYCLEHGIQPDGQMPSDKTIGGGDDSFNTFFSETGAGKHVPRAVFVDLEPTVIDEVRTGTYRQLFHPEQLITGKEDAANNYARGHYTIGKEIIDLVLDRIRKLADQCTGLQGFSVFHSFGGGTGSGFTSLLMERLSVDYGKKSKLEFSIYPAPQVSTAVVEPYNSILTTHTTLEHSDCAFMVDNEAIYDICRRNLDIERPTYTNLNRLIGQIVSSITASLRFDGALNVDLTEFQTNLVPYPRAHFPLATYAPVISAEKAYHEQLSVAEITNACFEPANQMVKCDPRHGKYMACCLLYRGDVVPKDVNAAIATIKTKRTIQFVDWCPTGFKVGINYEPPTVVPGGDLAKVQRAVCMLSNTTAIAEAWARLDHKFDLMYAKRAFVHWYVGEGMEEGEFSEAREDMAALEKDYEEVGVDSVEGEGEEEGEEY

SMILES | IC50 [1] | IC50 [2] | IC50 [3] | IC50 [4] | IC50 [5]
COc1ccc(S(=O)(=O)Oc2ccccc2NC(=O)c2ccc3ncccc3c2)cc1 |  |  | > 10000 nM | > 10000 nM | 
COc1ccc(S(=O)(=O)Oc2ccccc2NC(=O)c2ccc(N(C)C)cc2)cc1 |  |  | > 10000 nM | > 10000 nM | 
COc1ccc(S(=O)(=O)Oc2ccccc2NC(=O)c2cnccn2)cc1 |  |  | 68 nM | 250 nM | 5200 nM
COc1ccc(S(=O)(=O)Oc2ccccc2NC(=O)c2ccnc3ccccc23)cc1 |  |  | > 10000 nM | > 10000 nM | 
COc1ccc(S(=O)(=O)Oc2cccnc2NC(=O)c2ccco2)cc1 | Not Active | Not Active |  |  | 
COc1ccc(S(=O)(=O)Oc2ccccc2NC(=O)c2ccccc2)cc1 |  |  | 310 nM | 410 nM | 
COc1ccc(S(=O)(=O)Oc2ccccc2NC(=O)c2ccc(F)cc2)cc1 |  |  | 89 nM | 550 nM | 
COc1ccc(S(=O)(=O)Oc2ccccc2NC(=O)c2ccccn2)cc1 |  |  | 110 nM | 300 nM | 4060 nM
COc1ccc(S(=O)(=O)Oc2ccccc2NC(=O)Oc2ccccc2)cc1 |  |  | > 10000 nM | > 10000 nM | 
COc1ccc(S(=O)(=O)Oc2ccccc2NC(=O)c2ccco2)cc1 |  |  | 19 nM | 24 nM | 
COc1ccc(S(=O)(=O)Oc2ccccc2NC(=O)Nc2ccccc2)cc1 |  |  | > 10000 nM | > 10000 nM | 
COc1ccc(S(=O)(=O)Nc2cccnc2Nc2ccc(O)cc2)cc1 [ABT-751] |  |  | 340 nM | 350 nM | 3100 nM

Next, values leading:

IC50 [1] | IC50 [2] | IC50 [3] | IC50 [4] | IC50 [5] | SMILES
Not Active | Not Active |  |  |  | COc1ccc(S(=O)(=O)Oc2cccnc2NC(=O)c2ccncc2)cc1
Not Active | Not Active |  |  |  | COc1ccc(S(=O)(=O)Oc2ccccc2C(=O)Nc2ccccc2C)cc1
Not Active | Not Active |  |  |  | COc1ccc(S(=O)(=O)Oc2ccccc2C(=O)Nc2ccccc2)cc1
 |  | 56 nM | 130 nM | 3460 nM | COc1ccc(S(=O)(=O)Oc2ccccc2/C=C/c2ccncc2)cc1
Not Active | Not Active |  |  |  | COc1ccc(S(=O)(=O)Oc2ccccc2C(=O)Nc2ccncc2)cc1
 |  | 89 nM | 55 nM | 3730 nM | COc1ccc(S(=O)(=O)Oc2ccccc2NC(=O)c2ccncc2)cc1
 |  | > 3000 nM | > 6000 nM |  | COc1ccc(S(=O)(=O)Oc2ccccc2NC(=O)c2cccnc2)cc1
Not Active | Not Active |  |  |  | COc1ccc(S(=O)(=O)Oc2ccccc2C(=O)Nc2ccc(F)cc2)cc1
 |  | 600 nM | 720 nM |  | COc1ccc(S(=O)(=O)Oc2ccccc2NC(=O)Cc2ccncc2)cc1
